pIC50: −log10 of the molar value.
Experiments:
human PDE10A full length = molecular target: T1, human PDE10A full length (Homo sapiens, UniProt Q9Y233); test: PDE10A Scintillation Proximity Assay (SPA), human PDE10A full length assay; format: biochemical; conditions: 50 nM cGMP + 50 nM [3H]-cGMP, 20 minutes at room temperature, read-out: PDE10A inhibition IC50
T1 construct: purchased Enzo Life Science, Lausen, Switzerland SE-534
In short: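 SPA format with full-length enzyme in 20 mM HEPES pH 7.5, 10 mM MgCl2, 0.05 mg/ml BSA, substrate 50 nM cGMP plus 50 nM [3H]-cGMP. Reaction started with substrate, run 20 min at room temperature, stopped with YSi-SPA beads in zinc sulphate. IC50 from scintillation counts over an inhibitor concentration range.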

T1 sequence (Q9Y233 1-779 isoform Q9Y233-1): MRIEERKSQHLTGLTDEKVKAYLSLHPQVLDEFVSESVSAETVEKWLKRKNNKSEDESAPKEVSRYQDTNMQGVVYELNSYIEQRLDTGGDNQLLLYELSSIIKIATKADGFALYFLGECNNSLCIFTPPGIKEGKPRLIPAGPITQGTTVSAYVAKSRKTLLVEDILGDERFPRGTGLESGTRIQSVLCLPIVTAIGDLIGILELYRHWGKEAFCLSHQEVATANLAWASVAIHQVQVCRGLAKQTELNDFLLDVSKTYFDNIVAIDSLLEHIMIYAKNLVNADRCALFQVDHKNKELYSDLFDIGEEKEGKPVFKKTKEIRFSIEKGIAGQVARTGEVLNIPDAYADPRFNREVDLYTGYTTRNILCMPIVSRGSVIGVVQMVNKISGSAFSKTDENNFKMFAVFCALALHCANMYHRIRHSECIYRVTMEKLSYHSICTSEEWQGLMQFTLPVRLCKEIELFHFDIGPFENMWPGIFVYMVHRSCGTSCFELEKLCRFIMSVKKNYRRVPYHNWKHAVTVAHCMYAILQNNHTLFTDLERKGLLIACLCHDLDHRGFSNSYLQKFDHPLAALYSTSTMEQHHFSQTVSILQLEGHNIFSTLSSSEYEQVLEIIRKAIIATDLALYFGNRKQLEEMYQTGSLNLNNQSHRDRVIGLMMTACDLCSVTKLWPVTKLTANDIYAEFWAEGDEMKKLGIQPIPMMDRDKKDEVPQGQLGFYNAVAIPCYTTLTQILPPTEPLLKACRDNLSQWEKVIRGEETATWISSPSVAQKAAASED

Row | Compound | melting point | pIC50 (human PDE10A full length)
1 | CC(C)c1nc2cc(NC(=O)c3c(C(=O)N4CC(F)C4)cnn3C)ccn2n1 [Example 51, 4-(3-Fluoro-azetidine-1-carbonyl)-2-methyl-2H-pyrazole-3-carboxylic acid (2-isopropyl-[1,2,4]triazolo[1,5-a]pyridin-7-yl)-amide] | 226 to 227 °C | 7.38
2 | CC(C)c1nc2cc(NC(=O)c3c(C(=O)N4CCC4)cnn3C)ccn2n1 [Example 50, 4-(Azetidine-1-carbonyl)-2-methyl-2H-pyrazole-3-carboxylic acid (2-isopropyl-[1,2,4]triazolo[1,5-a]pyridin-7-yl)-amide] | 226 to 227 °C | 7.32
3 | CN(C)c1nc2cc(NC(=O)c3c(C(=O)N4CCC4)cnn3C)ccn2n1 [Example 35, 4-(Azetidine-1-carbonyl)-N-(2-(dimethylamino)-[1,2,4]triazolo[1,5-a]pyridin-7-yl)-1-methyl-1H-pyrazole-5-carboxamide] | 240 to 241 °C | 8.13
4 | CCN(CC)C(=O)c1cnn(C)c1C(=O)Nc1ccn2nc(N3CCOCC3)nc2c1 [Example 39, N4,N4-diethyl-1-methyl-N5-(2-morpholino-[1,2,4]triazolo[1,5-a]pyridin-7-yl)-1H-pyrazole-4,5-dicarboxamide] | 165 to 167 °C | 7.65
5 | CN(CCF)C(=O)c1cnn(C)c1C(=O)Nc1ccn2nc(-c3cccnc3)nc2c1 [Example 56, 2-Methyl-2H-pyrazole-3,4-dicarboxylic acid 4-[(2-fluoro-ethyl)-methyl-amide]3-[(2-pyridin-3-yl-[1,2,4]triazolo[1,5-a]pyridin-7-yl)-amide]] | 200 to 208 °C | 8.43
6 | CN(C(=O)c1cnn(C)c1C(=O)Nc1ccn2nc(N3CCOCC3)nc2c1)C1CCCC1 [Example 52, N4-cyclopentyl-N4,1-dimethyl-N5-(2-morpholino-[1,2,4]triazolo[1,5-a]pyridin-7-yl)-1H-pyrazole-4,5-dicarboxamide] | 222 to 224 °C | 7.24
7 | Cn1ncc(C(=O)N2CCC2)c1C(=O)Nc1ccn2nc(-c3cccnc3)nc2c1 [Example 44, 4-(Azetidine-1-carbonyl)-1-methyl-N-(2-(pyridin-3-yl)-[1,2,4]triazolo[1,5-a]pyridin-7-yl)-1H-pyrazole-5-carboxamide] | 253 to 254 °C | 8.24
8 | Cn1ncc(C(=O)N2CCC2)c1C(=O)Nc1ccn2nc(N3CCOCC3)nc2c1 [Example 8, 4-(Azetidine-1-carbonyl)-1-methyl-N-(2-morpholino-[1,2,4]triazolo[1,5-a]pyridin-7-yl)-1H-pyrazole-5-carboxamide] | 232 to 234 °C | 8.73
9 | COCCN(C)C(=O)c1cnn(C)c1C(=O)Nc1ccn2nc(-c3ccccc3)nc2c1 [Example 4, N4-(2-methoxyethyl)-N4,1-dimethyl-N5-(2-phenyl-[1,2,4]triazolo[1,5-a]pyridin-7-yl)-1H-pyrazole-4,5-dicarboxamide] | 172 to 175 °C | 9.55
10 | CN(CC(F)(F)F)C(=O)c1cnn(C)c1C(=O)Nc1ccn2nc(-c3ccccc3)nc2c1 [Example 49, 2-Methyl-2H-pyrazole-3,4-dicarboxylic acid 4-[methyl-(2,2,2-trifluoro-ethyl)-amide]3-[(2-phenyl-[1,2,4]triazolo[1,5-a]pyridin-7-yl)-amide]] | > 250 °C | 9.08
11 | Cn1ncc(C(=O)N2CC(F)C2)c1C(=O)Nc1ccn2nc(-c3ccccc3)nc2c1 [Example 25, 4-(3-Fluoroazetidine-1-carbonyl)-1-methyl-N-(2-phenyl-[1,2,4]triazolo[1,5-a]pyridin-7-yl)-1H-pyrazole-5-carboxamide] | 259 to 262 °C | 9.41
12 | CN(C)C(=O)c1cnn(C)c1C(=O)Nc1ccn2nc(N3CCOCC3)nc2c1 [Example 40, N4,N4,1-trimethyl-N5-(2-morpholino-[1,2,4]triazolo[1,5-a]pyridin-7-yl)-1H-pyrazole-4,5-dicarboxamide] | 237 to 240 °C | 8.15
13 | Cn1ncc(C(=O)N[C@H]2CCOC2)c1C(=O)Nc1ccn2nc(-c3ccccc3)nc2c1 [Example 14, (S)-1-Methyl-N5-(2-phenyl-[1,2,4]triazolo[1,5-a]pyridin-7-yl)-N4-(tetrahydrofuran-3-yl)-1H-pyrazole-4,5-dicarboxamide] | > 250 °C | 7.91
14 | Cn1ncc(C(=O)N2CCC2)c1C(=O)Nc1cc2nc(-c3ccccc3)nn2cc1F [Example 30, 4-(Azetidine-1-carbonyl)-N-(6-fluoro-2-phenyl-[1,2,4]triazolo[1,5-a]pyridin-7-yl)-1-methyl-1H-pyrazole-5-carboxamide] | > 250 °C | 8.90
15 | Cn1ncc(C(=O)N2CCCC2)c1C(=O)Nc1ccn2nc(-c3cccnc3)nc2c1 [Example 46, 1-Methyl-N-(2-(pyridin-3-yl)-[1,2,4]triazolo[1,5-a]pyridin-7-yl)-4-(pyrrolidine-1-carbonyl)-1H-pyrazole-5-carboxamide] | 226 to 228 °C | 8.93
16 | Cc1ccc(CN(C)C(=O)c2cnn(C)c2C(=O)Nc2ccn3nc(-c4ccccc4)nc3c2)cn1 [Example 20, N4,1-dimethyl-N4-((6-methylpyridin-3-yl)methyl)-N5-(2-phenyl-[1,2,4]triazolo[1,5-a]pyridin-7-yl)-1H-pyrazole-4,5-dicarboxamide] | 110 to 150 °C | 8.91
17 | CN(C(=O)c1cnn(C)c1C(=O)Nc1ccn2nc(-c3ccccc3)nc2c1)C1CC1 [Example 48, 2-Methyl-2H-pyrazole-3,4-dicarboxylic acid 4-(cyclopropyl-methyl-amide)3-[(2-phenyl-[1,2,4]triazolo[1,5-a]pyridin-7-yl)-amide]] | 156 to 157 °C | 9.01

Next, values leading:

Row | melting point | pIC50 (human PDE10A full length) | Compound
18 | > 250 °C | 7.17 | Cn1ncc(C(=O)N2CCC2)c1C(=O)Nc1ccn2nc(Br)nc2c1 [Example 65, 4-(Azetidine-1-carbonyl)-2-methyl-2H-pyrazole-3-carboxylic acid (2-bromo-[1,2,4]triazolo[1,5-a]pyridin-7-yl)-amide]
19 | > 250 °C | 8.50 | Cn1ncc(C(=O)N2CCC2)c1C(=O)Nc1ccn2nc(N3CCCC3)nc2c1 [Example 60, 4-(Azetidine-1-carbonyl)-2-methyl-2H-pyrazole-3-carboxylic acid (2-pyrrolidin-1-yl-[1,2,4]triazolo[1,5-a]pyridin-7-yl)-amide]
20 | 239.2 °C | 9.51 | COc1ccccc1-c1nc2cc(NC(=O)c3c(C(=O)N(C)C4CC4)cnn3C)ccn2n1 [Example 103, 2-Methyl-2H-pyrazole-3,4-dicarboxylic acid 4-(cyclopropyl-methyl-amide)3-{[2-(2-methoxy-phenyl)-[1,2,4]triazolo[1,5-a]pyridin-7-yl]-amide}]
21 | 263.9 °C | 8.92 | Cn1ncc(C(=O)N2CCC2)c1C(=O)Nc1ccn2nc(-c3cccc(F)n3)nc2c1 [Example 119, 4-(Azetidine-1-carbonyl)-2-methyl-2H-pyrazole-3-carboxylic acid [2-(6-fluoro-pyridin-2-yl)-[1,2,4]triazolo[1,5-a]pyridin-7-yl]-amide]
22 | 264.4 °C | 8.88 | CN(C)C(=O)c1cnn(C)c1C(=O)Nc1ccn2nc(-c3cccc(F)n3)nc2c1 [Example 120, 2-Methyl-2H-pyrazole-3,4-dicarboxylic acid 4-dimethylamide 3-{[2-(6-fluoro-pyridin-2-yl)-[1,2,4]triazolo[1,5-a]pyridin-7-yl]-amide}]
23 | > 250 °C | 8.74 | Cn1ncc(C(=O)N2CCC2)c1C(=O)Nc1ccn2nc(-c3ccncc3)nc2c1 [Example 66, 4-(Azetidine-1-carbonyl)-2-methyl-2H-pyrazole-3-carboxylic acid (2-pyridin-4-yl-[1,2,4]triazolo[1,5-a]pyridin-7-yl)-amide]
24 | 144 to 145 °C | 8.21 | CN(CCF)c1nc2cc(NC(=O)c3c(C(=O)N4CCOCC4)cnn3C)ccn2n1 [Example 71, 2-Methyl-4-(morpholine-4-carbonyl)-2H-pyrazole-3-carboxylic acid {2-[(2-fluoro-ethyl)-methyl-amino]-[1,2,4]triazolo[1,5-a]pyridin-7-yl}-amide]
25 | 167 to 169 °C | 8.10 | CCN(C)c1nc2cc(NC(=O)c3c(C(=O)N4CCOCC4)cnn3C)ccn2n1 [Example 59, 2-Methyl-4-(morpholine-4-carbonyl)-2H-pyrazole-3-carboxylic acid [2-(ethyl-methyl-amino)-[1,2,4]triazolo[1,5-a]pyridin-7-yl]-amide]
26 | 236 to 237 °C | 8.25 | CN(CCF)c1nc2cc(NC(=O)c3c(C(=O)N4CCC4)cnn3C)ccn2n1 [Example 70, 4-(Azetidine-1-carbonyl)-2-methyl-2H-pyrazole-3-carboxylic acid {2-[(2-fluoro-ethyl)-methyl-amino]-[1,2,4]triazolo[1,5-a]pyridin-7-yl}-amide]
27 | 272 to 273 °C | 7.28 | Cn1ncc(C(=O)N2C[C@H]3C[C@@H]2CO3)c1C(=O)Nc1ccn2nc(-c3cccnc3)nc2c1 (stereo in doubt) [Example 57, 2-Methyl-4-((1R,4R)-2-oxa-5-aza-bicyclo[2.2.1]heptane-5-carbonyl)-2H-pyrazole-3-carboxylic acid (2-pyridin-3-yl-[1,2,4]triazolo[1,5-a]pyridin-7-yl)-amide]
28 | 232 to 236 °C | 8.95 | Cn1ncc(C(=O)N2CCC2)c1C(=O)Nc1ccn2nc(-c3cccc(F)c3)nc2c1 [Example 105, 4-(Azetidine-1-carbonyl)-2-methyl-2H-pyrazole-3-carboxylic acid [2-(3-fluoro-phenyl)-[1,2,4]triazolo[1,5-a]pyridin-7-yl]-amide]

Reference: patent publication US8349824B2, “Triazolopyridine compounds” (Hoffmann-La Roche Inc., priority 2010, dated 2013)
